We go through ten compounds from patent publication US9550796B2, “Pyrrolopyrrolone derivatives and their use as BET inhibitors” (NOVARTIS AG, priority 2013, dated 2017).

Test [1] concerns MV-4-11. The test can be described thus: Cell growth inhibition assay (CellTiter-Glo), MV-4-11. Format: cell-based, human. The following applies: MV-4-11 cells, 4 days; for GI50: Homo sapiens, MV4-11, 96 h, half-maximal growth inhibition; for MV-4-11 TGI: total growth inhibition. A digest of the protocol:
(§1)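 Proliferation and viability are quantified by CellTiter-Glo after four days of incubation with serially diluted compound (maximum 10 μM). Four-parameter curve fitting gives IC50 and TGI.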
(Cellular ATP, detected with luciferase, serves as a proxy for viable cell number.)

The target in test [2] is BRD2 (Homo sapiens (Human), UniProt P25440). The test is described as follows: TR-FRET in-vitro binding assay for BRD2. The following applies: 45 nM His-Brd2(60-472), acetyl-histone H4 (AcK 5, 8, 12, 16) peptide. How it is done: TR-FRET In-Vitro Binding Assays for BRD2, BRD3, and BRD4: All assays were performed in 384-well microtiter plates. […] Liquid handling and incubation steps were done on an Innovadyne Nanodrop Express equipped with a robotic arm (Thermo CatX, Perkin Elmer/Caliper Twister II) and an incubator (Liconic STX40, Thermo Cytomat 2C450). The assay plates were prepared by addition of 50 nl per well of compound solution in 90% DMSO HummingBird nanodispenser (Zinsser Analytic). […] Reactions were incubated at 30° C. for 35 minutes. […] After 35 minutes incubation at 30° C., plates were measured in a Perkin Elmer EnVision multilabel reader. […] The stock solutions were stored at […] if not used immediately. For the test procedure the vials were defrosted and identified by a scanner whereby a working sheet was generated that guided the subsequent working steps. Compound dilutions were made in 96 well plates. This format enabled the assay of maximally […] at 8 concentrations (single points) including 4 reference compounds, if desired (known BET inhibitors from the prior art, for this and other assays of the type disclosed herein). The dilution protocol included the production of “pre-dilution plates”, “master plates” and “assay plates”. Polypropylene 96-well plates were used as pre-dilution plates. […] All dilution steps were done on a HamiltonSTAR robot. […] Identical “assay plates” were then prepared by pipetting 50 nL each of compound dilutions of the “master plates” into 384-well “assay plates” by means of a HummingBird 384-channel dispenser. These plates were used directly for the assay which was performed in a total volume of 13.55 μL.

The target in test [3] is CREBBP (Homo sapiens (Human), UniProt Q92793). The test can be described thus: AlphaScreen in-vitro binding assay for CREBBP. Conditions: 324 nM His-CREBBP (1081-1197), acetyl-histone H4 (AcK 5, 8, 12) peptide. A digest of the protocol: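 IC50 values were derived by non-linear regression of percent inhibition across 8 compound concentrations. Protein was His-tagged CREBBP bromodomain (1081-1197), peptide acetyl-histone H4 (AcK 5, 8, 12), in HEPES pH 7.5 buffer. Read-out was AlphaScreen with Ni-chelate acceptor and streptavidin donor beads, 35 min at 30° C then 60 min at RT.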
Background: Bead proximity is the source of the signal in Alpha formats.

The target of test [4] is BRD3 (Homo sapiens (Human), UniProt Q15059). The test is described as follows: TR-FRET in-vitro binding assay for BRD3. The following applies: 45 nM His-Brd3(20-477), acetyl-histone H4 (AcK 5, 8, 12, 16) peptide. The method in brief:
(§2)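 TR-FRET binding read after 35 min incubation at 30° C. Compounds dispensed from 90% DMSO solutions and tested at 8 concentrations in a 13.55 μL total reaction volume.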
In general terms: TR-FRET usually uses a lanthanide donor and a delayed reading to cut background.

Test [5] deals with THP-1. The test can be described thus: Cell growth inhibition assay (CellTiter-Glo), THP-1. Conditions: THP-1 cells, 4 days; for GI50: Homo sapiens, 96 h, half-maximal growth inhibition; for THP-1 TGI: total growth inhibition. The format is cell-based, human. The method in brief:
as §1

The test system of test [6] is K-562. The test is described as follows: Cell growth inhibition assay (CellTiter-Glo), K-562. Format: cell-based, human. Conditions: K-562 cells, 4 days; for GI50: Homo sapiens, K562, 96 h, half-maximal growth inhibition; for K-562 TGI: total growth inhibition. A digest of the protocol:
as §1

Test [7] concerns the target BRD4 (Homo sapiens (Human), UniProt O60885). The test can be described thus: TR-FRET in-vitro binding assay for BRD4. Conditions: 45 nM His-Brd4(44-477), acetyl-histone H4 (AcK 5, 8, 12, 16) peptide. A digest of the protocol:
as §2

Sequence of CREBBP (Q92793 1081-1197): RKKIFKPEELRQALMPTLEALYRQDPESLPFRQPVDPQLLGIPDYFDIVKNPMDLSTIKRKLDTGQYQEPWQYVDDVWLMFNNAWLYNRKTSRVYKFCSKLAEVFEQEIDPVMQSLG
Sequence of BRD3 (Q15059 20-477): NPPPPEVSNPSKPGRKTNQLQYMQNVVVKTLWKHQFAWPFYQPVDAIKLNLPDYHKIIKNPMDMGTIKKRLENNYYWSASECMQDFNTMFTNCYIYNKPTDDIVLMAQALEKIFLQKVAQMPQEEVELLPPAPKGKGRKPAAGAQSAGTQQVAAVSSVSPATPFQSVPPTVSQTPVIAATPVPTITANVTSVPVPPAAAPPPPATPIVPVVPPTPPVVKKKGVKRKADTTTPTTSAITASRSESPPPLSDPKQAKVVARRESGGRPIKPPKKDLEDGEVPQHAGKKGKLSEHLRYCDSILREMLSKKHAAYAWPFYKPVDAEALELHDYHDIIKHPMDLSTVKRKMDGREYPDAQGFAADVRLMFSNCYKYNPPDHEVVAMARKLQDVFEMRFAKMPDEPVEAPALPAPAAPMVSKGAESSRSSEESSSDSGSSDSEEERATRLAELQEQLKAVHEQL
Sequence of BRD2 (P25440 60-472): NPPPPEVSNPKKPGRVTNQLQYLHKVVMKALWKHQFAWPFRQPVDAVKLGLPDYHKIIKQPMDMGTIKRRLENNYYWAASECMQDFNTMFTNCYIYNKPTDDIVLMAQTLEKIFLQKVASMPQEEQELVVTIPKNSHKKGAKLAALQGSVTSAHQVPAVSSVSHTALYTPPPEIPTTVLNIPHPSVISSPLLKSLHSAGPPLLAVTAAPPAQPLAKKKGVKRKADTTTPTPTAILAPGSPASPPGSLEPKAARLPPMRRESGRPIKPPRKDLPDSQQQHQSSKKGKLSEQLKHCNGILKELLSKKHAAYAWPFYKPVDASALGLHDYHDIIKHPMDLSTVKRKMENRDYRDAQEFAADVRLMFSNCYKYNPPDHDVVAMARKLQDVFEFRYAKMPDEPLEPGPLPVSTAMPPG

As usually defined, the GI50 is the concentration that inhibits growth by half. Low values mean greater sensitivity of the cells, high ones lower sensitivity of the cells. One may read the IC50 as the point on the concentration scale where inhibition reaches its midpoint. A higher IC50 goes with weaker potency. On to `Cc1ccc(C2c3c(ccn3C)C(=O)N2c2cc(C)c(=O)n(C)c2)cc1` (stereo not shown) [Example 81, 5-(1,5-dimethyl-6-oxo-1,6-dihydropyridin-3-yl)-1-methyl-6-(p-tolyl)-5,6-dihydropyrrolo[3,4-b]pyrrol-4(1H)-one], for which the figures for the GI50 in test [1], in test [5] and in test [6] were 79.8 nM, 149 nM and 721 nM, respectively. In test [1], the “MV-4-11 TGI” value was 121 nM. Besides, the concentration for half-maximal inhibition (IC50) in test [2] was 126 nM; in test [3] it was 4500 nM; in test [4] it was 81.2 nM; in test [7], 131 nM. In addition, the “THP-1 TGI” value in test [5] stood at 300 nM. The “K-562 TGI” value in test [6] was above 10000 nM.

Turning to `COc1ncc(-c2cc3c(n2C)C(c2ccc(Cl)cc2)N(c2cc(Cl)c(=O)n(C)c2)C3=O)cn1` (stereo not shown) [Example 40, 5-(5-chloro-1-methyl-6-oxo-1,6-dihydropyridin-3-yl)-6-(4-chlorophenyl)-2-(2-methoxypyrimidin-5-yl)-1-methyl-5,6-dihydropyrrolo[3,4-b]pyrrol-4(1H)-one], the GI50 in test [1] is 83.9 nM; in test [5], 91.9 nM; in test [6], 326 nM. The “MV-4-11 TGI” value in test [1] turned out to be 127 nM. For the same compound, the IC50 turned out to be 72.5 nM in test [2], 365 nM in test [3], 54 nM in test [4] and 78 nM in test [7]. In test [5], the “THP-1 TGI” value amounted to 137 nM. In test [6], the “K-562 TGI” value was above 10000 nM.

With `CCOC(=O)N1CC(n2cc(C)c3c2C(c2ccc(Cl)cc2)N(c2cc(C)c4nnc(C)n4c2)C3=O)C1` (stereo not shown) [Example 8, Ethyl 3-(6-(4-chlorophenyl)-5-(3,8-dimethyl-[1,2,4]triazolo[4,3-a]pyridin-6-yl)-3-methyl-4-oxo-5,6-dihydropyrrolo[3,4-b]pyrrol-1(4H)-yl)azetidine-1-carboxylate], the results for the GI50 in test [1], in test [5] and in test [6] were 25.2 nM, 41.6 nM and 132 nM, respectively. Besides, the “MV-4-11 TGI” value in test [1] was determined as 37.75 nM. Also, the IC50 in test [2] is 41 nM; in test [3], 5100 nM; in test [4], 34 nM; in test [7] it was 18 nM. Further, in test [5], the “THP-1 TGI” value amounted to 93.95 nM. Besides, in test [6], the “K-562 TGI” value was above 10000 nM.

For `Cc1cc(N2C(=O)c3c(C4CC4)cn(C4CN(C)C4)c3C2c2ccc(Cl)cc2)cn2c(C)nnc12` (stereo not shown) [Example 16, 6-(4-chlorophenyl)-3-cyclopropyl-5-(3,8-dimethyl-[1,2,4]triazolo[4,3-a]pyridin-6-yl)-1-(1-methylazetidin-3-yl)-5,6-dihydropyrrolo[3,4-b]pyrrol-4(1H)-one], the concentration for 50% growth inhibition (GI50) in test [1] was 3.81 nM; in test [5] it was 11.7 nM; in test [6] it was 45.2 nM. Besides, in test [1], the “MV-4-11 TGI” value worked out at 12.4 nM. Also, the 50% inhibitory concentration (IC50) in test [2] was 14 nM; in test [3], 5000 nM; in test [4], 19 nM; in test [7] it was 14 nM. For the same compound, the “THP-1 TGI” value in test [5] worked out at 35.5 nM. The “K-562 TGI” value in test [6] was above 10000 nM.

`Cc1ccc(C2c3c(ccn3C)C(=O)N2c2cc(Cl)c(=O)n(C)c2)cc1` (stereo not shown) [Example 87, 5-(5-chloro-1-methyl-6-oxo-1,6-dihydropyridin-3-yl)-1-methyl-6-(p-tolyl)-5,6-dihydropyrrolo[3,4-b]pyrrol-4(1H)-one]: the GI50 came out at 75.3 nM in test [1], 83.9 nM in test [5] and 266 nM in test [6]. In addition, the “MV-4-11 TGI” value in test [1] amounted to 151 nM. Moreover, the IC50 in test [2] came to 108 nM; in test [3], 4100 nM; in test [4], 76.3 nM; in test [7], 120 nM. In addition, in test [5], the “THP-1 TGI” value is 255 nM. Moreover, in test [6], the “K-562 TGI” value is above 10000 nM.

Take `Cc1cc(N2C(=O)c3ccn(C)c3C2c2ccc(C#N)cc2)cn(C)c1=O` (stereo not shown) [Example 83, 4-(5-(1,5-dimethyl-6-oxo-1,6-dihydropyridin-3-yl)-1-methyl-4-oxo-1,4,5,6-tetrahydropyrrolo[3,4-b]pyrrol-6-yl)benzonitrile]: the concentration for 50% growth inhibition (GI50) is 326 nM in test [1], 634 nM in test [5] and 1130 nM in test [6]. Further, the “MV-4-11 TGI” value in test [1] was 636 nM. The IC50 in test [2] was 273 nM; in test [3], 7150 nM; in test [4] it was 200 nM; in test [7], 322 nM. In addition, in test [5], the “THP-1 TGI” value is 1270 nM. The “K-562 TGI” value in test [6] is above 10000 nM.

As to `Cc1cc(N2C(=O)c3cc(-c4cccc(=O)n4C)n(C4CC4)c3C2c2ccc(Cl)cc2)cn(C)c1=O` (stereo not shown) [Example 63, 6-(4-chlorophenyl)-1-cyclopropyl-5-(1,5-dimethyl-6-oxo-1,6-dihydropyridin-3-yl)-2-(1-methyl-6-oxo-1,6-dihydropyridin-2-yl)-5,6-dihydropyrrolo[3,4-b]pyrrol-4(1H)-one], the values for the GI50 in test [1], in test [5] and in test [6] were 94.4 nM, 426 nM and 680 nM, respectively. Further, in test [1], the “MV-4-11 TGI” value stood at 160 nM. Further, the IC50 was 100 nM in test [2], 180 nM in test [3], 85 nM in test [4] and 120 nM in test [7]. Moreover, the “THP-1 TGI” value in test [5] came to 788 nM. Also, the “K-562 TGI” value in test [6] is above 10000 nM.

With `Cc1cn(C)c2c1C(=O)N(c1cc(C)c3nnn(C)c3c1)C2c1ccc(Cl)cc1` (stereo not shown) [Example 28, 6-(4-chlorophenyl)-5-(1,4-dimethyl-1H-benzo[d][1,2,3]triazol-6-yl)-1,3-dimethyl-5,6-dihydropyrrolo[3,4-b]pyrrol-4(1H)-one], the GI50 in test [1] was 12.8 nM; in test [5], 19.2 nM; in test [6], 55.6 nM. In addition, the “MV-4-11 TGI” value in test [1] was found to be 26.35 nM. Also, the IC50 in test [2] amounted to 20 nM; in test [3], 1900 nM; in test [4], 21 nM; in test [7], 16 nM. Moreover, in test [5], the “THP-1 TGI” value is 38.15 nM. Further, the “K-562 TGI” value in test [6] is above 10000 nM.

As to `Cc1cc(N2C(=O)c3ccn(C)c3C2c2ccccc2)cn(C)c1=O` (stereo not shown) [Example 79, 5-(1,5-dimethyl-6-oxo-1,6-dihydropyridin-3-yl)-1-methyl-6-phenyl-5,6-dihydropyrrolo[3,4-b]pyrrol-4(1H)-one], the GI50 in test [1] turned out to be 295 nM; in test [5] it was 396 nM; in test [6] it was 1790 nM. Further, in test [1], the “MV-4-11 TGI” value was determined as 496 nM. For the same compound, the IC50 was found to be 660 nM in test [2], 26800 nM in test [3], 222 nM in test [4] and 434 nM in test [7]. Further, in test [5], the “THP-1 TGI” value came out at 904 nM. Also, the “K-562 TGI” value in test [6] was above 10000 nM.

As for `Cc1cc(N2C(=O)c3c(NC(=O)OC(C)(C)C)cn(C)c3C2c2ccc(Cl)cc2)nc2c1nnn2C` (stereo not shown) [Example 95, Tert-butyl (6-(4-chlorophenyl)-5-(3,7-dimethyl-3H-[1,2,3]triazolo[4,5-b]pyridin-5-yl)-1-methyl-4-oxo-1,4,5,6-tetrahydropyrrolo[3,4-b]pyrrol-3-yl)carbamate], the GI50 in test [1] was determined as 31.4 nM; in test [5], 34.9 nM; in test [6], 123 nM. Also, the “MV-4-11 TGI” value in test [1] amounted to 63.1 nM. The IC50 in test [2] was 34 nM; in test [3], above 37000 nM; in test [4], 26 nM; in test [7], 16 nM. Further, the “THP-1 TGI” value in test [5] was found to be 81.5 nM. The “K-562 TGI” value in test [6] is above 10000 nM.
